± gives the expanded uncertainty stated by the source.
Conditions: Ring tensiometer

CO [methanol]
surface tension liquid-gas (279.11 K): 23.87 ± 0.14 mN/m | surface tension liquid-gas (282.59 K): 23.63 ± 0.14 mN/m | surface tension liquid-gas (288.3 K): 23.14 ± 0.12 mN/m | surface tension liquid-gas (293.37 K): 22.73 ± 0.12 mN/m | surface tension liquid-gas (296.97 K): 22.43 ± 0.13 mN/m | surface tension liquid-gas (301.54 K): 21.99 ± 0.11 mN/m | surface tension liquid-gas (307.31 K): 21.43 ± 0.11 mN/m | surface tension liquid-gas (311.76 K): 21 ± 0.15 mN/m | surface tension liquid-gas (317.66 K): 20.43 ± 0.14 mN/m | surface tension liquid-gas (322.9 K): 19.83 ± 0.17 mN/m | surface tension liquid-gas (326.56 K): 19.42 ± 0.15 mN/m | surface tension liquid-gas (330.01 K): 19.09 ± 0.11 mN/m | surface tension liquid-gas (333.81 K): 18.63 ± 0.14 mN/m
